Reference: paper PMC5218480 (PLoS ONE, 2017)

Tested on: MV-4-11 cells
Experiment: Gene expression microarray analysis (Affymetrix PrimeView) and GSEA
Type: cell-based, human
Set-up: RFU PODN (11730768_x_at) / Fold change /veh PODN (11730768_x_at) / RFU LINC00158 (11744669_a_at) / Fold change /veh LINC00158 (11744669_a_at) / RFU DUSP10 (11751237_a_at) / Fold change /veh DUSP10 (11751237_a_at) / RFU ID3 (11757404_x_at) / Fold change /veh ID3 (11757404_x_at) / RFU PLEKHG5 (11737974_s_at) / Fold change /veh PLEKHG5 (11737974_s_at) / RFU LRRC4B (11730491_at) / Fold change /veh LRRC4B (11730491_at) / RFU GIMAP4 (11747438_a_at) / Fold change /veh GIMAP4 (11747438_a_at) / RFU KRT8 (11758183_x_at) / Fold change /veh KRT8 (11758183_x_at) / RFU CNN1 (11734310_a_at) / Fold change /veh CNN1 (11734310_a_at) / RFU VPS37D (11726825_at) / Fold change /veh VPS37D (11726825_at) / RFU C10orf10 (11716522_x_at) / Fold change /veh C10orf10 (11716522_x_at) / RFU KIR2DL2 /// KIR2DL4 /// KIR2DL5A /// KIR2DL5B /// KIR2DS1 /// KIR2DS2 /// KIR2DS3 /// KIR2DS4 /// KIR3DL3 /// KIR3DL3 /// KIR3DS1 (11738374_at) / Fold change /veh KIR2DL2 /// KIR2DL4 /// KIR2DL5A /// KIR2DL5B /// KIR2DS1 /// KIR2DS2 /// KIR2DS3 /// KIR2DS4 /// KIR3DL3 /// KIR3DL3 /// KIR3DS1 (11738374_at) / RFU C1QL1 (11718748_at) / Fold change /veh C1QL1 (11718748_at) / RFU TMPRSS4 (11747572_a_at) / Fold change /veh TMPRSS4 (11747572_a_at) / RFU HAMP (11756126_x_at) / Fold change /veh HAMP (11756126_x_at) / RFU RNFT2 (11725882_a_at) / Fold change /veh RNFT2 (11725882_a_at) / RFU NR4A2 (11747474_a_at) / Fold change /veh NR4A2 (11747474_a_at) / RFU ABCC12 (11746883_a_at) / Fold change /veh ABCC12 (11746883_a_at) / RFU TMEM136 (11760407_x_at) / Fold change /veh TMEM136 (11760407_x_at) / RFU CLDN22 /// WWC2 (11732394_at) / Fold change /veh CLDN22 /// WWC2 (11732394_at) / RFU HLA-DPB1 (11760878_x_at) / Fold change /veh HLA-DPB1 (11760878_x_at) / RFU SPINT1 (11716480_a_at) / Fold change /veh SPINT1 (11716480_a_at) / RFU GAP43 (11754022_s_at) / Fold change /veh GAP43 (11754022_s_at) / RFU A4GNT (11735810_at) / Fold change /veh A4GNT (11735810_at) / RFU PRB3 (11715151_x_at) / Fold change /veh PRB3 (11715151_x_at) / RFU TUBB4B (11761932_at) / Fold change /veh TUBB4B (11761932_at) / RFU CAPN14 (11732068_a_at) / Fold change /veh CAPN14 (11732068_a_at) / RFU TMCC2 (11721928_a_at) / Fold change /veh TMCC2 (11721928_a_at) / RFU IRGQ (11745062_a_at) / Fold change /veh IRGQ (11745062_a_at) / RFU FAM174B (11720279_a_at) / Fold change /veh FAM174B (11720279_a_at) / RFU TMPRSS4 (11748680_a_at) / Fold change /veh TMPRSS4 (11748680_a_at) / RFU FAM212B (11763350_a_at) / Fold change /veh FAM212B (11763350_a_at) / RFU PLEKHG5 (11743358_a_at) / Fold change /veh PLEKHG5 (11743358_a_at) / RFU ZSCAN30 (11745921_a_at) / Fold change /veh ZSCAN30 (11745921_a_at) / RFU CMKLR1 (11741424_a_at) / Fold change /veh CMKLR1 (11741424_a_at) / RFU LOC101060620 /// MAPK8IP1 (11723275_at) / Fold change /veh LOC101060620 /// MAPK8IP1 (11723275_at) / RFU SPTSSB (11747773_x_at) / Fold change /veh SPTSSB (11747773_x_at) / RFU PRSS12 (11739890_at) / Fold change /veh PRSS12 (11739890_at) / RFU BIN1 (11741810_x_at) / Fold change /veh BIN1 (11741810_x_at) / RFU WNT11 (11732464_a_at) / Fold change /veh WNT11 (11732464_a_at) / RFU C10orf10 (11716521_a_at) / Fold change /veh C10orf10 (11716521_a_at) / RFU C5orf56 (11738089_at) / Fold change /veh C5orf56 (11738089_at) / RFU CYB561 (11721691_x_at) / Fold change /veh CYB561 (11721691_x_at) / RFU ANKRD19P (11752326_a_at) / Fold change /veh ANKRD19P (11752326_a_at) / RFU OR2T12 /// OR2T33 /// OR2T8 (11738714_s_at) / Fold change /veh OR2T12 /// OR2T33 /// OR2T8 (11738714_s_at) / RFU VCAN (11748164_a_at) / Fold change /veh VCAN (11748164_a_at) / RFU JSRP1 (11732532_at) / Fold change /veh JSRP1 (11732532_at) / RFU KRTAP10-11 (11738290_x_at) / Fold change /veh KRTAP10-11 (11738290_x_at) / RFU MYO3A (11730013_a_at) / Fold change /veh MYO3A (11730013_a_at) / RFU EBF3 (11725865_a_at) / Fold change /veh EBF3 (11725865_a_at) / RFU CAMK2N1 (11719241_x_at) / Fold change /veh CAMK2N1 (11719241_x_at) / RFU C5orf56 (11738088_a_at) / Fold change /veh C5orf56 (11738088_a_at) / RFU OLFML3 (11715873_a_at) / Fold change /veh OLFML3 (11715873_a_at) / RFU LOC100653217 /// NTM (11731650_a_at) / Fold change /veh LOC100653217 /// NTM (11731650_a_at) / RFU MAPK11 (11762145_a_at) / Fold change /veh MAPK11 (11762145_a_at) / RFU FIZ1 (11724087_x_at) / Fold change /veh FIZ1 (11724087_x_at) / RFU OASL (11726364_x_at) / Fold change /veh OASL (11726364_x_at) / RFU SOX15 (11748057_x_at) / Fold change /veh SOX15 (11748057_x_at) / RFU CD79A (11719716_a_at) / Fold change /veh CD79A (11719716_a_at) / RFU HIST1H1D (11736915_at) / Fold change /veh HIST1H1D (11736915_at) / RFU CASKIN2 (11723855_a_at) / Fold change /veh CASKIN2 (11723855_a_at) / RFU LOC730098 (11760151_x_at) / Fold change /veh LOC730098 (11760151_x_at) / RFU OR4N2 (11742367_at) / Fold change /veh OR4N2 (11742367_at) / RFU PRRT2 (11749266_a_at) / Fold change /veh PRRT2 (11749266_a_at) / RFU SNX32 (11753110_a_at) / Fold change /veh SNX32 (11753110_a_at) / RFU CDHR5 (11726645_a_at) / Fold change /veh CDHR5 (11726645_a_at) / RFU RCAN1 (11760418_a_at) / Fold change /veh RCAN1 (11760418_a_at) / RFU FAM167A (11723789_a_at) / Fold change /veh FAM167A (11723789_a_at) / RFU FAM26E (11764081_at) / Fold change /veh FAM26E (11764081_at) / RFU ISYNA1 (11749810_s_at) / Fold change /veh ISYNA1 (11749810_s_at) / RFU ACY1 (11761880_at) / Fold change /veh ACY1 (11761880_at) / RFU 11764098_at / Fold change /veh 11764098_at / RFU SAMD14 (11745864_x_at) / Fold change /veh SAMD14 (11745864_x_at) / RFU NPB (11741838_a_at) / Fold change /veh NPB (11741838_a_at) / RFU TMPRSS6 (11731388_a_at) / Fold change /veh TMPRSS6 (11731388_a_at) / RFU KRTAP10-2 (11738614_at) / Fold change /veh KRTAP10-2 (11738614_at) / RFU ARHGAP8 /// PRR5-ARHGAP8 (11727945_x_at) / Fold change /veh ARHGAP8 /// PRR5-ARHGAP8 (11727945_x_at) / RFU KRTAP5-7 /// NADSYN1 (11734609_at) / Fold change /veh KRTAP5-7 /// NADSYN1 (11734609_at) / RFU RASL12 (11751679_a_at) / Fold change /veh RASL12 (11751679_a_at) / RFU CDKN2B (11736163_a_at) / Fold change /veh CDKN2B (11736163_a_at) / RFU PRF1 (11729649_at) / Fold change /veh PRF1 (11729649_at) / RFU, ZNF638 /// ZNF638-IT1 / Fold change vs veh, ZNF638 /// ZNF638-IT1 / RFU, PANK3 / Fold change vs veh, PANK3 / RFU, SH3YL1 / Fold change vs veh, SH3YL1 / RFU, ZEB2 / Fold change vs veh, ZEB2 / RFU, NRIP1 / Fold change vs veh, NRIP1 / RFU, PTTG1IP / Fold change vs veh, PTTG1IP / RFU, CAPN2 / Fold change vs veh, CAPN2 / RFU, MED14 / Fold change vs veh, MED14 / RFU, SNORA58 / Fold change vs veh, SNORA58 / RFU, C1orf63 / Fold change vs veh, C1orf63 / RFU, LRRFIP1 / Fold change vs veh, LRRFIP1 / RFU, NDUFAF7 / Fold change vs veh, NDUFAF7 / RFU, SLC12A2 / Fold change vs veh, SLC12A2 / RFU, IBTK / Fold change vs veh, IBTK / RFU, ESF1 / Fold change vs veh, ESF1 / Fold change vs veh, TMEM50B / RFU, TAOK1 / Fold change vs veh, TAOK1 / RFU, ACBD3 / Fold change vs veh, ACBD3 / RFU, TMA16 / Fold change vs veh, TMA16 / RFU, RWDD3 / Fold change vs veh, RWDD3 / RFU, BCAT1 / Fold change vs veh, BCAT1 / RFU, EDEM3 / Fold change vs veh, EDEM3 / RFU, TMEM33 / Fold change vs veh, TMEM33 / RFU, WDR75 / Fold change vs veh, WDR75 / RFU, AHCTF1 / Fold change vs veh, AHCTF1 / RFU, TFRC / Fold change vs veh, TFRC / RFU, ZDHHC17 / Fold change vs veh, ZDHHC17 / RFU, NOM1 / Fold change vs veh, NOM1 / RFU, ARL8B / Fold change vs veh, ARL8B / RFU, ZBTB11 / Fold change vs veh, ZBTB11 / RFU, TAMM41 / Fold change vs veh, TAMM41 / RFU, KIAA1704 /// LOC100996395 / Fold change vs veh, KIAA1704 /// LOC100996395 / RFU, ING1 / Fold change vs veh, ING1 / RFU, TRMT61B / Fold change vs veh, TRMT61B / RFU, FUBP3 / Fold change vs veh, FUBP3 / RFU, TP53 / Fold change vs veh, TP53 / RFU, TNKS2 / Fold change vs veh, TNKS2 / RFU, ZFP14 / Fold change vs veh, ZFP14 / RFU, ACTR2 / Fold change vs veh, ACTR2 / RFU, PPP3R1 / Fold change vs veh, PPP3R1 / RFU, PIK3R1 / Fold change vs veh, PIK3R1 / RFU, HNRNPA1 / Fold change vs veh, HNRNPA1 / RFU, RNF170 / Fold change vs veh, RNF170 / RFU, ZNF28 / Fold change vs veh, ZNF28 / RFU, RNGTT / Fold change vs veh, RNGTT / RFU, OGT / Fold change vs veh, OGT / RFU, BRD1 / Fold change vs veh, BRD1 / RFU, MARS / Fold change vs veh, MARS / RFU, ZNF655 / Fold change vs veh, ZNF655 / RFU, FAHD1 / Fold change vs veh, FAHD1 / RFU, BDP1 / Fold change vs veh, BDP1 / RFU, LRRCC1 / Fold change vs veh, LRRCC1 / RFU, ARID1A / Fold change vs veh, ARID1A / RFU, ZNF146 / Fold change vs veh, ZNF146 / RFU, ZNF330 / Fold change vs veh, ZNF330 / RFU, GPN3 / Fold change vs veh, GPN3 / RFU, C9orf123 / Fold change vs veh, C9orf123 / RFU, N4BP2L2 / Fold change vs veh, N4BP2L2 / RFU, ARFIP1 / Fold change vs veh, ARFIP1 / RFU, FAM179B / Fold change vs veh, FAM179B / RFU, BCL10 / Fold change vs veh, BCL10 / RFU, UHRF1BP1L / Fold change vs veh, UHRF1BP1L / RFU, BET1 / Fold change vs veh, BET1 / RFU, CNOT2 / Fold change vs veh, CNOT2 / RFU, ZNF268 / Fold change vs veh, ZNF268 / Fold change vs veh, ZNF507 / RFU, DGCR2 / Fold change vs veh, DGCR2 / RFU, WDSUB1 / Fold change vs veh, WDSUB1 / Fold change vs veh, HSP90B1 /// MIR3652 / RFU, ADSS / Fold change vs veh, ADSS / RFU, GK / Fold change vs veh, GK / RFU, ZNF148 / Fold change vs veh, ZNF148 / RFU, TAF9 / Fold change vs veh, TAF9 / RFU, SLC1A5 / Fold change vs veh, SLC1A5 / RFU, SLMO2 / Fold change vs veh, SLMO2 / RFU, ABCC4 / Fold change vs veh, ABCC4 / RFU, LOC101060439 /// RAP1B / Fold change vs veh, LOC101060439 /// RAP1B / RFU, RFX7 / Fold change vs veh, RFX7 / RFU, GTPBP10 / Fold change vs veh, GTPBP10 / RFU, CNEP1R1 / Fold change vs veh, CNEP1R1 / RFU, BIVM-ERCC5 /// ERCC5 / Fold change vs veh, BIVM-ERCC5 /// ERCC5 / RFU, ILF3 / Fold change vs veh, ILF3 / RFU 11762660_at / Fold change /veh 11762660_at / RFU VCAN (11757783_s_at) / Fold change /veh VCAN (11757783_s_at) / RFU DDX43 (11728927_at) / Fold change /veh DDX43 (11728927_at) / RFU KRT8 (11758188_x_at) / Fold change /veh KRT8 (11758188_x_at) / RFU NKD1 (11759106_at) / Fold change /veh NKD1 (11759106_at) / RFU SRD5A1 (11742802_a_at) / Fold change /veh SRD5A1 (11742802_a_at) / RFU TPSAB1 /// TPSB2 (11721975_s_at) / Fold change /veh TPSAB1 /// TPSB2 (11721975_s_at) / RFU GSTM3 (11746129_a_at) / Fold change /veh GSTM3 (11746129_a_at) / RFU IL23R (11737362_x_at) / Fold change /veh IL23R (11737362_x_at) / RFU TMEM51 (11727254_a_at) / Fold change /veh TMEM51 (11727254_a_at) / RFU PIWIL2 (11732686_x_at) / Fold change /veh PIWIL2 (11732686_x_at) / RFU ORM1 (11744905_x_at) / Fold change /veh ORM1 (11744905_x_at) / RFU CCDC152 (11743942_at) / Fold change /veh CCDC152 (11743942_at) / RFU ECM1 (11717891_a_at) / Fold change /veh ECM1 (11717891_a_at) / RFU IL23R (11748794_a_at) / Fold change /veh IL23R (11748794_a_at) / RFU TNFAIP8L3 (11732012_x_at) / Fold change /veh TNFAIP8L3 (11732012_x_at) / RFU MBOAT4 (11741988_at) / Fold change /veh MBOAT4 (11741988_at) / RFU 11764193_at / Fold change /veh 11764193_at / RFU TMEM53 (11763286_at) / Fold change /veh TMEM53 (11763286_at) / RFU MAGEB2 (11727129_at) / Fold change /veh MAGEB2 (11727129_at) / RFU TMEM200A (11744735_a_at) / Fold change /veh TMEM200A (11744735_a_at) / RFU CCDC152 (11751479_a_at) / Fold change /veh CCDC152 (11751479_a_at) / RFU FAM211A (11726209_a_at) / Fold change /veh FAM211A (11726209_a_at) / RFU RGS16 (11746705_a_at) / Fold change /veh RGS16 (11746705_a_at) / RFU VCAN (11755009_s_at) / Fold change /veh VCAN (11755009_s_at) / RFU RHOB (11743442_s_at) / Fold change /veh RHOB (11743442_s_at) / RFU RGS16 (11720943_a_at) / Fold change /veh RGS16 (11720943_a_at) / RFU RGS16 (11720944_at) / Fold change /veh RGS16 (11720944_at) / RFU, VPS4B / Fold change vs veh, VPS4B / RFU, CREB1 / Fold change vs veh, CREB1 / RFU, DNAJC13 / Fold change vs veh, DNAJC13 / RFU, GNAQ / Fold change vs veh, GNAQ / RFU, CDK5R1 / Fold change vs veh, CDK5R1 / RFU, ZRANB3 / Fold change vs veh, ZRANB3 / RFU, CUL4A / Fold change vs veh, CUL4A / RFU, CCNY / Fold change vs veh, CCNY / RFU, UFL1 / Fold change vs veh, UFL1 / RFU, COG3 / Fold change vs veh, COG3 / RFU, DIAPH2 / Fold change vs veh, DIAPH2 / RFU, SKA2 / Fold change vs veh, SKA2 / RFU, AFF3 / Fold change vs veh, AFF3 / RFU, LMF1 / Fold change vs veh, LMF1 / RFU, IPO11 / Fold change vs veh, IPO11 / RFU, DFFB / Fold change vs veh, DFFB / RFU, FOXP1 / Fold change vs veh, FOXP1 / RFU, CARD8 / Fold change vs veh, CARD8 / RFU, STRN3 / Fold change vs veh, STRN3 / RFU, ADK / Fold change vs veh, ADK / RFU, RASSF2 / Fold change vs veh, RASSF2 / RFU, WIPF1 / Fold change vs veh, WIPF1 / RFU, LARP1B / Fold change vs veh, LARP1B / RFU, RASA1 / Fold change vs veh, RASA1 / RFU, RB1 / Fold change vs veh, RB1 / RFU, PPFIA1 / Fold change vs veh, PPFIA1 / RFU, MAT2A / Fold change vs veh, MAT2A / RFU, CCT5 / Fold change vs veh, CCT5 / RFU, WDR92 / Fold change vs veh, WDR92 / RFU, CUX1 / Fold change vs veh, CUX1 / RFU, TTC7A / Fold change vs veh, TTC7A / RFU, TMEM135 / Fold change vs veh, TMEM135 / RFU, DEPTOR / Fold change vs veh, DEPTOR / RFU, CPM / Fold change vs veh, CPM / RFU, DNAJB6 / Fold change vs veh, DNAJB6 / RFU, CACNA2D3 / Fold change vs veh, CACNA2D3 / RFU, DTX4 / Fold change vs veh, DTX4 / RFU, TFCP2 / Fold change vs veh, TFCP2 / RFU, GMCL1 /// GMCL1P1 / Fold change vs veh, GMCL1 /// GMCL1P1 / RFU, AEBP2 / Fold change vs veh, AEBP2 / RFU, SNHG1 /// SNORD22 /// SNORD25 /// SNORD26 /// SNORD27 /// SNORD28 /// SNORD29 /// SNORD31 / Fold change vs veh, SNHG1 /// SNORD22 /// SNORD25 /// SNORD26 /// SNORD27 /// SNORD28 /// SNORD29 /// SNORD31 / Fold change (Aza/veh), C12orf56 (ProbeSet 11735607_a_at) / Fold change (ACY-1035/veh), C12orf56 (ProbeSet 11735607_a_at) / Fold change (Aza/veh), FGFR1OP (ProbeSet 11751329_s_at) / Fold change (ACY-1035/veh), FGFR1OP (ProbeSet 11751329_s_at) / Fold change (Aza/veh), VPS36 (ProbeSet 11739960_a_at) / Fold change (ACY-1035/veh), VPS36 (ProbeSet 11739960_a_at) / RFU SYPL1 (11715823_x_at) / Fold change /veh SYPL1 (11715823_x_at) / RFU IGFBP7 (11715501_s_at) / Fold change /veh IGFBP7 (11715501_s_at) / RFU REEP3 (11722064_at) / Fold change /veh REEP3 (11722064_at) / RFU IGLL1 (11728026_x_at) / Fold change /veh IGLL1 (11728026_x_at): dose or concentration left out as unconfirmed
Conditions: MV-4-11 cells, 48 hours

Nc1ncn([C@@H]2O[C@H](CO)[C@@H](O)[C@H]2O)c(=O)n1 [azacitidine]
Fold change /veh CASKIN2 (11723855_a_at): 1.13
